For the experiment, the target named is T1, LymCBP HAT domain (Lymnaea stagnalis, UniProt E2QC33).
T1 construct: HAT (catalytic) domain, R1240 to K1641 of LymCBP, His6-tag, pET28a(+), expressed in E. coli Rosetta-gami 2(DE3); cDNA from Lymnaea CNS; Ni-NTA and cation exchange
Put plainly: autoradiography of […]-acetylated histone H1 after SDS-PAGE. In kind it is biochemical. To be noted: pH 8.0, 30 °C, 4 h.

Setting [1] is: 50 uM inhibitor, calf thymus histone H1, [14C]-acetyl-CoA.

T1 sequence (E2QC33 entry or part of it): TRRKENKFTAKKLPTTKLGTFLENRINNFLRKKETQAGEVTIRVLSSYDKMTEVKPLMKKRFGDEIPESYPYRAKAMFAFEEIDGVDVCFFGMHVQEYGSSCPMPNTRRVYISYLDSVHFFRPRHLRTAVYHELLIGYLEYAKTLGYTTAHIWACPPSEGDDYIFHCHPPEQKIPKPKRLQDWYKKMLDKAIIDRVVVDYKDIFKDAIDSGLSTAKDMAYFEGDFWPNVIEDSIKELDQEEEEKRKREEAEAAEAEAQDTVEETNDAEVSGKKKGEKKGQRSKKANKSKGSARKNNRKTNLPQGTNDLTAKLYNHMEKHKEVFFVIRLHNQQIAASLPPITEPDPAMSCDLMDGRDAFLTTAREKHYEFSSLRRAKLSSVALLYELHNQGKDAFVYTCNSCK

On to `CC(=O)SCCNC(=O)CCNC(=O)[C@H](O)C(C)(C)COP(=O)(O)OP(=O)(O)OC[C@H]1O[C@@H](n2cnc3c(N)ncnc32)[C@H](O)[C@@H]1OP(=O)(O)O` [[14C]-acetyl-CoA], for which the “autoradiography of [14C]-acetylated histone H1 after SDS-PAGE” value (calf thymus histone H1 as acetyl acceptor, no inhibitor, labelled compound) is listed as “in the absence of HAT inhibitors in the incubation solution, LymCBP acetylated histone H1”.
For the compound `CCCCCCCCCCCCCCCc1cccc(O)c1C(=O)O` [anacardic acid], the “autoradiography of [14C]-acetylated histone H1 after SDS-PAGE” value under setting [1] is “In the presence of HAT inhibitors in the incubation solution, however, H1 acetylation signals were eliminated”.
The same measure, in the same setting: the value for `COc1cc(/C=C/C(=O)CC(=O)/C=C/c2ccc(O)c(OC)c2)ccc1O` [curcumin] was “In the presence of HAT inhibitors in the incubation solution, however, H1 acetylation signals were eliminated”; that for `C=C(C)[C@@H](CC=C(C)C)C[C@@]12C[C@@H](CC=C(C)C)C(C)(C)[C@@](CC=C(C)C)(C(=O)C(=C(O)c3ccc(O)c(O)c3)C1=O)C2=O` [garcinol] was “In the presence of HAT inhibitors in the incubation solution, however, H1 acetylation signals were eliminated”.

The values are drawn from publication PMC9828244, “Molecular and functional characterization of an evolutionarily conserved CREB‐binding protein in the Lymnaea CNS” (The FASEB Journal, 2022).
